Measured values taken from patent publication US20230278983A1, “INDOLE DERIVATIVES AND USES THEREOF FOR TREATING A CANCER” (Universite Claude Bernard Lyon 1, priority 2020, published 2023).

The compounds below were run against CK2 (Homo sapiens (Human), UniProt P68400) (assay: Radiometric CK2 kinase assay). Conditions: not given.
Assay type: biochemical

Sequence of CK2 (P68400 whole entry): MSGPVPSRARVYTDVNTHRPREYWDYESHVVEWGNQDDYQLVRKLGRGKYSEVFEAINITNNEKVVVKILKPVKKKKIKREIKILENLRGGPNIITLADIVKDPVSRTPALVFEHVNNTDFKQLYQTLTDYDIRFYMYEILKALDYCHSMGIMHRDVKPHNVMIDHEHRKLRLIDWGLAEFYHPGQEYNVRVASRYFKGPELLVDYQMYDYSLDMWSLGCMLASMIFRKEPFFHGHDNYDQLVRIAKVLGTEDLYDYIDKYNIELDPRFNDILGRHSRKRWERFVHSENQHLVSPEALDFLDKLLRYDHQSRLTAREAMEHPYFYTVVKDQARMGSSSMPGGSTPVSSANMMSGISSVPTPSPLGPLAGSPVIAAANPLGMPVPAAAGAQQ

Structure (SMILES) | IC50 [nM]
CC(=O)c1[nH]c2ccc(F)cc2c1-c1cn(CC2CCN(CCNS(=O)(=O)c3ccc(CC4CC4)cc3)CC2)nn1 [AB1317, N-(2-(4-((4-(2-acetyl-5-fluoro-1H-indol-3-yl)-1H-1,2,3-triazol-1-yl)methyl)piperidin-1-yl)ethyl)-4-(cyclopropylmethyl)benzenesulfonamide] | 310
CCOC(=O)c1[nH]c2ccc(Cl)cc2c1-c1cn(CC2CCN(CCNS(=O)(=O)c3ccc(CC)cc3)CC2)nn1 [AB543, Ethyl 5-chloro-3-(1-((1-(2-((4-ethylphenyl)sulfonamido)ethyl)piperidin-4-yl)methyl)-1H-1,2,3-triazol-4-yl)-1H-indole-2-carboxylate] | 930
CC(=O)c1[nH]c2ccc(F)cc2c1-c1cn(CC2CCN(CCNS(=O)(=O)c3ccc(-c4c(F)cccc4C(F)(F)F)cc3)CC2)nn1 [AB1451, N-(2-(4-((4-(2-acetyl-5-fluoro-1H-indol-3-yl)-1H-1,2,3-triazol-1-yl)methyl)piperidin-1-yl)ethyl)-2′-fluoro-6′-(trifluoromethyl)-[1,1′-biphenyl]-4-sulfonamide] | 45
O=S(=O)(NCCN1CCC(Cn2cc(-c3c[nH]c4ccc(F)cc34)nn2)CC1)c1ccc(Cl)cc1 [AB153, 4-Chloro-N-(2-(4-((4-(5-fluoro-1H-indol-3-yl)-1H-1,2,3-triazol-1-yl)methyl)piperidin-1-yl)ethyl)benzenesulfonamide] | 15100
Cc1noc(C)c1-c1ccc(S(=O)(=O)NCCN2CCC(Cn3cc(-c4c(C(=O)C5CC5)[nH]c5ccc(F)cc45)nn3)CC2)cc1 [AB1285, N-(2-(4-((4-(2-(cyclopropanecarbonyl)-5-fluoro-1H-indol-3-yl)-1H-1,2,3-triazol-1-yl)methyl)piperidin-1-yl)ethyl)-4-(3,5-dimethylisoxazol-4-yl)benzenesulfonamide] | 930
CCc1ccc(S(=O)(=O)NCCN2CCC(Cn3cc(-c4c(C(=O)OC(C)C)[nH]c5ccc(Cl)cc45)nn3)CC2)cc1 [AB578, Isopropyl 5-chloro-3-(1-((1-(2-((4-ethylphenyl)sulfonamido)ethyl)piperidin-4-yl)methyl)-1H-1,2,3-triazol-4-yl)-1H-indole-2-carboxylate] | 9200
COCc1ccccc1-c1ccc(S(=O)(=O)NCCN2CCC(Cn3cc(-c4c(C(=O)OCC(C)C)[nH]c5ccc(F)cc45)nn3)CC2)cc1 [AB1303] | 33
CC(C)COC(=O)c1[nH]c2ccc(F)cc2c1-c1cn(CC2CCN(CCNS(=O)(=O)c3ccc(C(F)(F)F)cc3)CC2)nn1 [AB600, Isobutyl 5-fluoro-3-(1-((1-(2-((4-(trifluoromethyl)phenyl)sulfonamido)ethyl)piperidin-4-yl)methyl)-1H-1,2,3-triazol-4-yl)-1H-indole-2-carboxylate] | 350
CC(C)COC(=O)c1[nH]c2ccc(F)cc2c1-c1cn(CC2CCN(CCNS(=O)(=O)c3ccc(-c4cn[nH]c4)cc3)CC2)nn1 [AB1032, isobutyl 3-(1-((1-(2-((4-(1H-pyrazol-4-yl)phenyl)sulfonamido)ethyl)piperidin-4-yl)methyl)-1H-1,2,3-triazol-4-yl)-5-fluoro-1H-indole-2-carboxylate] | 200
CCc1ccc(S(=O)(=O)NCCN2CCC(Cn3cc(-c4c(C(=O)OCC(C)C)[nH]c5ccc(Cl)cc45)nn3)CC2)cc1 [AB557, Isobutyl 5-chloro-3-(1-((1-(2-((4-ethylphenyl)sulfonamido)ethyl)piperidin-4-yl)methyl)-1H-1,2,3-triazol-4-yl)-1H-indole-2-carboxylate] | 560
CC(C)COC(=O)c1[nH]c2ccc(F)cc2c1-c1cn(CC2CCN(CCNS(=O)(=O)c3ccc(-c4ccccc4)cc3)CC2)nn1 [AB913, isobutyl 3-(1-((1-(2-([1,1′-biphenyl]-4-sulfonamido)ethyl)piperidin-4-yl)methyl)-1H-1,2,3-triazol-4-yl)-5-fluoro-1H-indole-2-carboxylate] | 80

Same assay, conditions: compound at 0.05 μM; ATP 10 μM

Structure (SMILES) | inhibition at 0.05 µM [%]
CCCC(=O)c1[nH]c2ccc(F)cc2c1-c1cn(CC2CCN(CCNS(=O)(=O)c3ccc(-c4cccnc4Cl)cc3)CC2)nn1 [AB1233, N-(2-(4-((4-(2-butyryl-5-fluoro-1H-indol-3-yl)-1H-1,2,3-triazol-1-yl)methyl)piperidin-1-yl)ethyl)-4-(2-chloropyridin-3-yl)benzenesulfonamide] | 17

Same assay, conditions: compound at 0.10 μM; ATP 10 μM

Structure (SMILES) | inhibition at 0.1 µM [%]
CC(=O)c1[nH]c2ccc(F)cc2c1-c1cn(CC2CCN(CCNS(=O)(=O)c3ccc(-c4ccc(F)cc4Cl)cc3)CC2)nn1 [AB1453, N-(2-(4-((4-(2-acetyl-5-fluoro-1H-indol-3-yl)-1H-1,2,3-triazol-1-yl)methyl)piperidin-1-yl)ethyl)-2′-chloro-4′-fluoro-[1,1′-biphenyl]-4-sulfonamide] | 40
CC(=O)c1[nH]c2ccc(F)cc2c1-c1cn(C[C@H]2CCCN(CCNS(=O)(=O)c3ccc(CC(C)C)cc3)C2)nn1 [AB1403] | 9
CC(=O)c1[nH]c2ccc(F)cc2c1-c1cn(C2CCN(CCNS(=O)(=O)c3ccc(CC(C)C)cc3)CC2)nn1 [AB1321, N-(2-(4-(4-(2-acetyl-5-fluoro-1H-indol-3-yl)-1H-1,2,3-triazol-1-yl)piperidin-1-yl)ethyl)-4-isobutylbenzenesulfonamide] | 4

Same assay, conditions: compound at 1 μM; ATP 10 μM

Structure (SMILES) | inhibition at 1 µM [%]
CC(C)COC(=O)c1[nH]c2ccc(F)cc2c1-c1cn(CC2CCN(S(=O)(=O)N3CCN(Cc4ccccc4)CC3)CC2)nn1 [AB755] | 56
CC(C)COC(=O)c1[nH]c2ccc(F)cc2c1-c1cn(CC2CCN(S(=O)(=O)c3ccc(C(C)(C)C)cc3)CC2)nn1 [AB938] | 5
CC(C)CCOc1ccccc1-c1ccc(C(=O)N2CCC(Cn3cc(-c4c(C(=O)OCC(C)C)[nH]c5ccc(F)cc45)nn3)CC2)cc1Cl [AB743, Isobutyl 3-(1-((1-(2-chloro-2′-(isopentyloxy)-[1,1′-biphenyl]-4-carbonyl)piperidin-4-yl)methyl)-1H-1,2,3-triazol-4-yl)-5-fluoro-1H-indole-2-carboxylate] | 9
CC(C)CCOC(=O)c1[nH]c2ccc(F)cc2c1-c1cn(CC2CCN(CCNS(=O)(=O)c3ccc(CC(C)C)cc3)CC2)nn1 [AB669, Isopentyl 5-fluoro-3-(1-((1-(2-((4-isobutylphenyl)sulfonamido)ethyl)piperidin-4-yl)methyl)-1H-1,2,3-triazol-4-yl)-1H-indole-2-carboxylate] | 32
COc1ccc(C)cc1-c1ccc(CN2CCC(Cn3cc(-c4c(C(=O)OCC(C)C)[nH]c5ccc(F)cc45)nn3)CC2)cc1Cl [AB692] | 5
CC(C)COC(=O)c1[nH]c2ccc(F)cc2c1-c1cn(CC2CCN(CCNS(=O)(=O)c3ccc4c(c3)CCO4)CC2)nn1 [AB930, isobutyl 3-(1-((1-(2-((2,3-dihydrobenzofuran)-5-sulfonamido)ethyl)piperidin-4-yl)methyl)-1H-1,2,3-triazol-4-yl)-5-fluoro-1H-indole-2-carboxylate] | 45

Same assay, conditions: inhibition of CK2 activity; ATP 10 μM

Structure (SMILES) | IC50 [nM]
CC(C)COC(=O)c1[nH]c2ccc(F)cc2c1-c1cn(CC2CCN(CCNS(=O)(=O)Cc3ccc(Br)cc3)CC2)nn1 [AB1030, isobutyl 3-(1-((1-(2-(((4-bromophenyl)methyl)sulfonamido)ethyl)piperidin-4-yl)methyl)-1H-1,2,3-triazol-4-yl)-5-fluoro-1H-indole-2-carboxylate] | 54
CC(C)CC(=O)c1[nH]c2ccc(F)cc2c1-c1cn(CC2CCN(CCNS(=O)(=O)Cc3ccc(C(F)(F)F)cc3)CC2)nn1 [AB1306, N-(2-(4-((4-(5-fluoro-2-(3-methylbutanoyl)-1H-indol-3-yl)-1H-1,2,3-triazol-1-yl)methyl)piperidin-1-yl)ethyl)-1-(4-(trifluoromethyl)phenyl)methanesulfonamide] | 450
CC(C)COC(=O)c1[nH]c2ccc(F)cc2c1-c1cn(CC2CCN(CCNS(=O)(=O)c3ccc(-c4ccccc4CN4CCOCC4)cc3)CC2)nn1 [AB1075] | 79
O=C(O)c1[nH]c2cc(Cl)ccc2c1-c1cn(CC2CCN(CCNS(=O)(=O)c3ccc(Cl)cc3)CC2)nn1 [AB202, 6-Chloro-3-(1-((1-(2-((4-chlorophenyl)sulfonamido)ethyl)piperidin-4-yl)methyl)-1H-1,2,3-triazol-4-yl)-1H-indole-2-carboxylic acid] | 12100
CC(C)COC(=O)c1[nH]c2ccc(F)cc2c1-c1cn(CC2CCN(CCNS(=O)(=O)Cc3ccc(Cl)cc3)CC2)nn1 [AB936, isobutyl 3-(1-((1-(2-(((4-chlorophenyl)methyl)sulfonamido)ethyl)piperidin-4-yl)methyl)-1H-1,2,3-triazol-4-yl)-5-fluoro-1H-indole-2-carboxylate] | 550
CC(=O)c1[nH]c2ccc(F)cc2c1-c1cn(CC2CCN(CCNS(=O)(=O)N3CCC(c4c(F)cccc4F)CC3)CC2)nn1 [AB1316, N-(2-(4-((4-(2-acetyl-5-fluoro-1H-indol-3-yl)-1H-1,2,3-triazol-1-yl)methyl)piperidin-1-yl)ethyl)-4-(2,6-difluorophenyl)piperidine-1-sulfonamide] | 280
CC(C)COC(=O)c1[nH]c2ccc(F)cc2c1-c1cn(CC2CCN(CCNS(=O)(=O)Cc3ccc(C(F)(F)F)cc3)CC2)nn1 [AB935, isobutyl 5-fluoro-3-(1-((1-(2-(((4-(trifluoromethyl)phenyl)methyl)sulfonamido)ethyl)piperidin-4-yl)methyl)-1H-1,2,3-triazol-4-yl)-1H-indole-2-carboxylate] | 49
O=C(c1[nH]c2ccc(F)cc2c1-c1cn(CC2CCN(CCNS(=O)(=O)N3CCC(c4c(F)cccc4F)CC3)CC2)nn1)C1CC1 [AB1304, N-(2-(4-((4-(2-(cyclopropanecarbonyl)-5-fluoro-1H-indol-3-yl)-1H-1,2,3-triazol-1-yl)methyl)piperidin-1-yl)ethyl)-4-(2,6-difluorophenyl)piperidine-1-sulfonamide] | 500
CCc1ccc(S(=O)(=O)NCCN2CCC(Cn3cc(-c4c(C(=O)OCCN)[nH]c5ccc(F)cc45)nn3)CC2)cc1 [AB614, 2-Aminoethyl 3-(1-((1-(2-((4-ethylphenyl)sulfonamido)ethyl)piperidin-4-yl)methyl)-1H-1,2,3-triazol-4-yl)-5-fluoro-1H-indole-2-carboxylate] | 3240
